Assay results as given in US10966426B2, “Herbicidal compositions comprising phenylpyrimidines” (BASF SE, priority 2016, dated 2021).
“And” between values parts separate entries of the source, which are not always exact repeats. Identical values can stand only once.

Columns and labels:
Assay type in all cases: in vivo
[1] = system: Echinocloa crus-galli; assay: greenhouse pre-emergence treatment, ECHCG
How it was run: (§1)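 Seeds were sown per species in pots of loamy sand with about 3.0% humus, sprayed with the aqueous spray liquor directly after sowing, watered and hooded until rooted, then kept at 10-25° C. or 20-35° C. for 2 to 4 weeks. Damage was scored 0 (none) to 100 (no emergence/complete destruction).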

[2] = system: Polygonum convolvulus; assay: greenhouse post-emergence treatment, POLCO
How it was run: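 Each species was grown separately and treated once it reached 3 to 15 cm, using actives suspended or emulsified in water. Plants were kept at 10-25° C. or 20-35° C., depending on species. Damage is a 0–100 rating taken during 2 to 4 weeks.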

[3] = system: Helianthus annuus; assay: greenhouse pre-emergence treatment, HELAN; conditions: HELAN
How it was run: as §1

[4] = system: Papaver rhoeas; assay: greenhouse pre-emergence treatment, PAPRH
How it was run: as §1

[5] = system: Lolium multiflorum; assay: greenhouse post-emergence treatment, LOLMU
How it was run: (§2)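 Scoring used a 0 to 100 scale, with 100 denoting no emergence or full destruction of at least the above-ground parts, recorded within a 2 to 4 week test period. Test plants grew in loamy sand containing about 3.0% humus at 10-25° C. or 20-35° C., after direct sowing or transplanting, and received water-based treatments post-emergence.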

[6] = system: Avena fatua; assay: greenhouse post-emergence treatment, AVEFA
How it was run: as §2

[7] = 20 DAT, Ex. 26 solo 31.25 gai/ha
[8] = 20 DAT, solo Ex. 26 62.5 gai/ha
[9] = Ex. 26 solo 31.25 gai/ha, 20 DAT
[10] = Ex. 26 solo 62.5 gai/ha, 20 DAT
[11] = Ex. 26 solo, 31.25 gai/ha, 20 DAT
[12] = 20 DAT, Ex. 26 solo 62.5 gai/ha
[13] = Ex. 26 solo, 62.5 gai/ha, 20 DAT
[14] = Ex. 26 solo, 125 gai/ha, 20 DAT

For `COC(=O)c1nc(C2CC2)ncc1-c1ccc(F)cc1Cl` [Ex. 26], the “% activity” value [1, 7] was 50%, the “% activity” value ([1]; 20 DAT, Ex. 26 solo 125 gai/ha) was 90% and the “% activity” value [1, 8] was 60%. For the same molecule, the “% activity” value [1, 9] was 50%, the “% activity” value [1, 10] was 70% and the “% activity” value ([1]; Ex. 26 solo 125 gai/ha, 20 DAT) was 90%. For the same molecule, the “% activity” value [1, 11] was 50%, the “% activity” value ([2]; 20 DAT, Ex. 26 solo 250 gai/ha) was 30% and the “% activity” value ([2]; 20 DAT, POLCO, Ex. 26 solo 62.5 gai/ha) was 65%. The “% activity” value ([2]; 20 DAT, POLCO, Ex. 26 solo 125 gai/ha) was 85% and 80%, the “% activity” value ([2]; 21 DAT, Ex. 26 solo 125 gai/ha) was 0% and the “% activity” value ([2]; Ex. 26 solo 62.5 gai/ha, 20 DAT, POLCO) was 30%. The “% activity” value ([2]; Ex. 26 solo 62.5 gai/ha, 21 DAT, POLCO) was 0%, the “% activity” value ([2]; Ex. 26 solo 125 gai/ha, 20 DAT, POLCO) was 90% and the “% activity” value ([2]; Ex. 26 solo 125 gai/ha, 21 DAT, POLCO) was 0%. The “% activity” value ([2]; Ex. 26 solo, 125 gai/ha, 20 DAT, POLCO) was 5%, the “% activity” value ([2]; Ex. 26 solo, 125 gai/ha, 21 DAT, POLCO) was 35% and the “% activity” value ([2]; Ex. 26 solo, 250 gai/ha, 20 DAT, POLCO) was 30%. The “% activity” value ([2]; Ex. 26 solo, 250 gai/ha, 21 DAT, POLCO) was 85%, the “% activity” value ([2]; POLCO, 21 DAT, solo Ex. 26 62.5 gai/ha) was 0% and the “% activity” value ([2]; POLCO, 21 DAT, solo Ex. 26 125 gai/ha) was 35%. For the same molecule, the “% activity” value ([2]; POLCO, 21 DAT, solo Ex. 26 250 gai/ha) was 85%, the “% activity” value [3, 7] was 0% and the “% activity” value [3, 12] was 20%. The “% activity” value ([3]; 20 DAT, Ex. 26 solo 125 gai/ha) was 0%, the “% activity” value ([3]; 21 DAT, Ex. 26 solo 125 gai/ha) was 0% and the “% activity” value ([3]; 21 DAT, Ex. 26 solo 250 gai/ha) was 0%. The “% activity” value ([3]; Ex. 26 solo 125 gai/ha, 21 DAT) was 0%, the “% activity” value ([3]; Ex. 26 solo 250 gai/ha, 21 DAT) was 0% and the “% activity” value [3, 13] was 0%. For the same molecule, the “% activity” value [3, 14] was 0%, the “% activity” value [3, 8] was 0% and the “% activity” value [3, 9] was 0%. The “% activity” value [3, 10] was 0%, the “% activity” value ([3]; Ex. 26 solo 125 gai/ha, 20 DAT) was 0% and the “% activity” value [4, 7] was 0%. The “% activity” value [4, 12] was 0%, the “% activity” value ([4]; 20 DAT, Ex. 26 solo 125 gai/ha) was 30% and the “% activity” value [4, 8] was 0%. The “% activity” value [4, 9] was 0%, the “% activity” value [4, 10] was 0% and the “% activity” value ([4]; Ex. 26 solo 125 gai/ha, 20 DAT) was 0% and 30%. The “% activity” value [4, 11] was 0%, the “% activity” value [4, 13] was 0% and the “% activity” value [4, 14] was 0%. For the same molecule, the “% activity” value [5, 12] was 0%, the “% activity” value ([5]; 20 DAT, LOLMU, Ex. 26 solo 125 gai/ha) was 65% and 55% and the “% activity” value ([5]; 20 DAT, LOLMU, Ex. 26 solo 250 gai/ha) was 65%. For the same molecule, the “% activity” value ([5]; 21 DAT, Ex. 26 solo 125 gai/ha) was 10%, the “% activity” value ([5]; 21 DAT, Ex. 26 solo 250 gai/ha) was 55% and the “% activity” value ([5]; Ex. 26 solo 62.5 gai/ha, 20 DAT, LOLMU (pyridate table)) was 0%. For the same molecule, the “% activity” value ([5]; Ex. 26 solo 62.5 gai/ha, 20 DAT, LOLMU (pyroxsulam table)) was 10%, the “% activity” value ([5]; Ex. 26 solo 62.5 gai/ha, 21 DAT, LOLMU) was 0% and the “% activity” value ([5]; Ex. 26 solo 125 gai/ha, 20 DAT, LOLMU (pyridate table)) was 35%. The “% activity” value ([5]; Ex. 26 solo 125 gai/ha, 20 DAT, LOLMU (pyroxsulam table)) was 35%, the “% activity” value ([5]; Ex. 26 solo 125 gai/ha, 21 DAT, LOLMU) was 10% and the “% activity” value ([5]; Ex. 26 solo 250 gai/ha, 20 DAT, LOLMU (pyridate table)) was 60%. For the same molecule, the “% activity” value ([5]; Ex. 26 solo 250 gai/ha, 20 DAT, LOLMU (pyroxsulam table)) was 55%, the “% activity” value ([5]; Ex. 26 solo, 125 gai/ha, 20 DAT, LOLMU) was 0% and the “% activity” value ([5]; Ex. 26 solo, 125 gai/ha, 21 DAT, LOLMU) was 15%. The “% activity” value ([5]; Ex. 26 solo, 250 gai/ha, 20 DAT, LOLMU) was 25%, the “% activity” value ([5]; Ex. 26 solo, 250 gai/ha, 21 DAT, LOLMU) was 30% and the “% activity” value ([5]; LOLMU, 21 DAT, solo Ex. 26 62.5 gai/ha) was 0%. For the same molecule, the “% activity” value ([5]; LOLMU, 21 DAT, solo Ex. 26 125 gai/ha) was 15%, the “% activity” value ([5]; LOLMU, 21 DAT, solo Ex. 26 250 gai/ha) was 30% and the “% activity” value ([5]; LOLMU, Ex. 26 solo 125 gai/ha, 20 DAT) was 55% and 35%. For the same molecule, the “% activity” value ([5]; LOLMU, Ex. 26 solo 250 gai/ha, 20 DAT) was 65%, the “% activity” value ([6]; 20 DAT, AVEFA, Ex. 26 solo 62.5 gai/ha) was 65% and the “% activity” value ([6]; 20 DAT, AVEFA, Ex. 26 solo 125 gai/ha) was 75%. The “% activity” value ([6]; 20 DAT, AVEFA, Ex. 26 solo 250 gai/ha) was 75%, the “% activity” value [6, 12] was 35% and the “% activity” value ([6]; 20 DAT, Ex. 26 solo 250 gai/ha) was 70%. For the same molecule, the “% activity” value ([6]; AVEFA, 21 DAT, solo Ex. 26 62.5 gai/ha) was 70%, the “% activity” value ([6]; AVEFA, 21 DAT, solo Ex. 26 125 gai/ha) was 70% and the “% activity” value ([6]; AVEFA, Ex. 26 solo 125 gai/ha, 20 DAT) was 70%. For the same molecule, the “% activity” value ([6]; AVEFA, Ex. 26 solo 250 gai/ha, 20 DAT) was 75%, the “% activity” value ([6]; Ex. 26 solo 62.5 gai/ha, 20 DAT, AVEFA) was 65% and the “% activity” value ([6]; Ex. 26 solo 62.5 gai/ha, 21 DAT, AVEFA) was 50%. For the same molecule, the “% activity” value ([6]; Ex. 26 solo 125 gai/ha, 20 DAT, AVEFA) was 70% and the “% activity” value ([6]; Ex. 26 solo 250 gai/ha, 20 DAT, AVEFA) was 75%.
